Source: patent US20250361217A1, “FATTY ACID COMPOUNDS” (University of Pittsburgh - Of the Commonwealth System of …, priority 2022, published 2025)

What was measured:
liver gene expression = assay: RT-qPCR of liver genes; format: in vivo, mice; conditions: liver RT-qPCR vs HFD+veh
Procedure: Total RNA was extracted using 50 mg of frozen liver powder. The powder was homogenized in 1 mL of TRIzol solution (Invitrogen, #15-596-026) and 200 μl of chloroform, shaken vigorously for 15 seconds, and incubate at RT for 2-3 min. Lysates were centrifuged at 12000 g for 15 min at 4° C. The upper aqueous phase was transferred in a new ice-cold tube and diluted with 500 μl of ice-cold isopropyl alcohol and incubate at RT for 10 min. Tubes were centrifuged at 12000 g for 10 min at 4° C. The RNA pellet was washed twice using ice-cold 75% ethanol and centrifugation for 5 min at 7500 g at 4° C. The RNA pellet was dissolved in RNase-free H2O and the concentration was measured using Nanodrop 2000 (Thermo Fisher Scientific). […] The RNA sample (1 μg) was subjected to reverse transcription with the iScript cDNA synthesis kit. The TaqMan gene expression assays-on-demand system (Applied Biosystems, Foster City, CA, USA) was used for gene expression assessment by quantitative PCR (qPCR) using GAPDH as housekeeping gene using the comparative Ct method.

[1] = test system: HFD model in C57BL/6J mice; assay: Liver histology (H&E) scores of steatosis, ballooning, inflammation in HFD mice; format: in vivo; conditions: 50 mg/kg
Source text: Male C57BL/6J mice were purchased from Jackson Laboratory (Bar Harbor, ME, USA). Mice were acclimated for a week before being randomized to receive either a low-fat diet (LFD) or a high-fat diet (HFD) purchased from Research Diets (New Brunswick, NJ, USA). Obesity was induced by the HFD (D12492, with 60% of the adjusted calories derived from fat) for 16 weeks beginning at age of 8 weeks. Age-matched controls were maintained on a LFD (D12450J, matching the sucrose level of D12492). While maintaining the diet, mice under HFD were divided into 4 groups (n=8 per group) and were treated every 2 days by oral gavage for 7 weeks with 100 μl of 11D3 (50 mg/kg), 11U3 (50 mg/kg), or 11U3-2M (50 mg/kg) formulated in a solution of 2:1 of polyethylene glycol (Fisher Scientific, PEG400 #p167-1) and saline, containing 1.5% of octanoic acid (TCI, #00027). Control groups received 100 μl of PEG400/saline/octanoic acid as the vehicle (Veh). LFD mice were divided into 2 groups (n=8 per group) and treated with veh or 11D3 (50 mg/kg) to detect any effect of natural FuFA in LFD. […] Food intake, water consumption, and mouse weight were monitored every week. […]
The fixed Liver tissues embedded in paraffin were cut into 4 μm sections. […] Quantifications and scores of liver steatosis, ballooning, and inflammation were performed blindly by a pathologist based on 3 parameters—steatosis, inflammation, hepatocyte degeneration.

liver mitochondria = assay: Citrate synthase activity and Oroboros analysis of liver mitochondria flux; format: in vivo, mice; conditions: for increase in citrate synthase activity (CSA) vs veh: 50 mg/kg, 11 weeks
Source text: A second cohort of mice was set up to confirm the effect of 11U3-2M on mitochondria and fatty acid (FA) β-oxidation using Oroboros analysis in the HFD but also in LFD models. Male C57BL/6J diet-induced obesity (C57BL/6J DIO, #380050) and male C57BL/6J diet-induced obesity control mice (C57BL/6J DIO Control, #380056) were purchased from Jackson Laboratory (Bar Harbor, ME, USA) at 15 weeks of age. Mice were continuously feeding either HFD or LFD during transport and upon reception. Mice were fed for 4 more weeks before starting the treatment. While continuing the HFD (n=8 per group) or LFD (n=8 per group), mice were treated with the same formulation as the first cohort using only 11U3-2M (50 mg/kg) or veh for 11 weeks. Mice were fasted for 5 h and received a single intraperitoneal injection of 50 μl of D31-palmitic acid (Cambridge Isotope, 3 μM, #dlm-215-1) in PEG400/Saline (2:1) and 1.5% of octanoic acid solution 2h before sacrifice in order to study FA metabolism. Blood and tissues were harvested and stored as described above.

CCCc1ccc(CCCCCCCCCC(C)(C)C(=O)O)o1 [11U3-2M, 2,2-Dimethyl-11-(5-propylfuran-2-yl)undecanoic acid]
LncRNA GM10804 decreased (liver gene expression): 3.3 fold | LncRNA GM15441 increased (liver gene expression): 320 fold | PDK4 increase (liver gene expression): 9.3 fold | ballooning degeneration of hepatocytes vs HFD+veh [1]: significantly alleviated | liver steatosis vs HFD+veh [1]: significantly alleviated | increase of flux after addition of glutamate, ratio to CSA, vs veh (liver mitochondria; HFD mice): 34% | increase of flux normalized to CSA vs veh (liver mitochondria; HFD mice): 38.3% | increase in citrate synthase activity (CSA) vs veh (liver mitochondria; HFD mice): 29% | flux after addition of succinate (maximum respiration), normalized by CSA (liver mitochondria; LFD and HFD mice): didn't show any significant difference | increase of flux after addition of glutamate, ratio to CSA, vs veh (liver mitochondria; LFD mice): 23% | increase of flux normalized to CSA vs veh (liver mitochondria; LFD mice): 32.5% | increase in citrate synthase activity (CSA) vs veh (liver mitochondria; LFD mice): 27% | flux with pyruvate as the substrate (liver mitochondria; normalized to CSA): No significant change | mitochondria flux (Oroboros), not normalized (liver mitochondria; substrates palmitoylcarnitine and pyruvate): significantly higher flux
